Experimental data as given in ChEMBL document CHEMBL5532655, “Discovery of (R)-4-(8-methoxy-2-methyl-1-(1-phenylethy)-1H-imidazo[4,5-c]quinnolin-7-yl)-3,5-dimethylisoxazole as a potent and selective BET inhibitor for treatment of acute myeloid leukemia (AML) guided by FEP calculation” (Eur J Med Chem, 2024).

Key:
MV4-11 [1] = assay: Induction of apoptosis in human MV4-11 cells assessed as early apoptotic cells at 1.25 uM incubated for 24 hrs by annexin V-FITC/PI staining based flow cytometric analysis (reference value: 0%); type: functional
MV4-11 [2] = assay: Induction of apoptosis in human MV4-11 cells assessed as early apoptotic cells at 0.625 uM incubated for 24 hrs by annexin V-FITC/PI staining based flow cytometric analysis (reference value: 0%); type: functional
MV4-11 [3] = assay: Induction of apoptosis in human MV4-11 cells assessed as viable cells at 0.625 uM incubated for 24 hrs by annexin V-FITC/PI staining based flow cytometric analysis (reference value: 97%); type: functional
MV4-11 [4] = assay: Induction of apoptosis in human MV4-11 cells assessed as viable cells at 1.25 uM incubated for 24 hrs by annexin V-FITC/PI staining based flow cytometric analysis (reference value: 97%); type: functional
MV4-11 [5] = assay: Induction of apoptosis in human MV4-11 cells assessed as viable cells at 2.5 uM incubated for 24 hrs by annexin V-FITC/PI staining based flow cytometric analysis (reference value: 97%); type: functional
MV4-11 [6] = assay: Induction of apoptosis in human MV4-11 cells assessed as viable cells at 5 uM incubated for 24 hrs by annexin V-FITC/PI staining based flow cytometric analysis (reference value: 97%); type: functional
MV4-11 [7] = assay: Induction of apoptosis in human MV4-11 cells assessed as viable cells at 10 uM incubated for 24 hrs by annexin V-FITC/PI staining based flow cytometric analysis (reference value: 97%); type: functional
MV4-11 [8] = assay: Induction of apoptosis in human MV4-11 cells assessed as early apoptotic cells at 2.5 uM incubated for 24 hrs by annexin V-FITC/PI staining based flow cytometric analysis (reference value: 0%); type: functional
MV4-11 [9] = assay: Induction of apoptosis in human MV4-11 cells assessed as early apoptotic cells at 5 uM incubated for 24 hrs by annexin V-FITC/PI staining based flow cytometric analysis (reference value: 0%); type: functional
MV4-11 [10] = assay: Induction of apoptosis in human MV4-11 cells assessed as early apoptotic cells at 10 uM incubated for 24 hrs by annexin V-FITC/PI staining based flow cytometric analysis (reference value: 0%); type: functional
MV4-11 [11] = assay: Induction of apoptosis in human MV4-11 cells assessed as late apoptotic cells at 0.625 uM incubated for 24 hrs by annexin V-FITC/PI staining based flow cytometric analysis (reference value: 0.04 %); type: functional
MV4-11 [12] = assay: Induction of apoptosis in human MV4-11 cells assessed as late apoptotic cells at 1.25 uM incubated for 24 hrs by annexin V-FITC/PI staining based flow cytometric analysis (reference value: 0.04 %); type: functional
MV4-11 [13] = assay: Induction of apoptosis in human MV4-11 cells assessed as late apoptotic cells at 2.5 uM incubated for 24 hrs by annexin V-FITC/PI staining based flow cytometric analysis (reference value: 0.04 %); type: functional
MV4-11 [14] = assay: Induction of apoptosis in human MV4-11 cells assessed as late apoptotic cells at 5 uM incubated for 24 hrs by annexin V-FITC/PI staining based flow cytometric analysis (reference value: 0.04 %); type: functional
MV4-11 [15] = assay: Induction of apoptosis in human MV4-11 cells assessed as late apoptotic cells at 10 uM incubated for 24 hrs by annexin V-FITC/PI staining based flow cytometric analysis (reference value: 0.04 %); type: functional
MV4-11 [16] = assay: Induction of apoptosis in human MV4-11 cells assessed as necrotic cells at 0.625 uM incubated for 24 hrs by annexin V-FITC/PI staining based flow cytometric analysis (reference value: 2.35 %); type: functional
MV4-11 [17] = assay: Induction of apoptosis in human MV4-11 cells assessed as necrotic cells at 1.25 uM incubated for 24 hrs by annexin V-FITC/PI staining based flow cytometric analysis (reference value: 2.35 %); type: functional
MV4-11 [18] = assay: Induction of apoptosis in human MV4-11 cells assessed as necrotic cells at 2.5 uM incubated for 24 hrs by annexin V-FITC/PI staining based flow cytometric analysis (reference value: 2.35 %); type: functional
MV4-11 [19] = assay: Induction of apoptosis in human MV4-11 cells assessed as necrotic cells at 5 uM incubated for 24 hrs by annexin V-FITC/PI staining based flow cytometric analysis (reference value: 2.35 %); type: functional
MV4-11 [20] = assay: Induction of apoptosis in human MV4-11 cells assessed as necrotic cells at 10 uM incubated for 24 hrs by annexin V-FITC/PI staining based flow cytometric analysis (reference value: 2.35 %); type: functional
MV4-11 [21] = assay: Induction of cell cycle arrest in human MV4-11 cells assessed as accumulation of cells at G0/G1 phase at 0.3125 uM incubated for 24 hrs by propidium iodide staining flow cytometric analysis (reference value: 34.97 %); type: functional
MV4-11 [22] = assay: Induction of cell cycle arrest in human MV4-11 cells assessed as accumulation of cells at G0/G1 phase at 0.625 uM incubated for 24 hrs by propidium iodide staining flow cytometric analysis (reference value: 34.97 %); type: functional
MV4-11 [23] = assay: Induction of cell cycle arrest in human MV4-11 cells assessed as accumulation of cells at G0/G1 phase at 1.25 uM incubated for 24 hrs by propidium iodide staining flow cytometric analysis (reference value: 34.97 %); type: functional
MV4-11 [24] = assay: Induction of cell cycle arrest in human MV4-11 cells assessed as accumulation of cells at G0/G1 phase at 2.5 uM incubated for 24 hrs by propidium iodide staining flow cytometric analysis (reference value: 34.97 %); type: functional
MV4-11 [25] = assay: Induction of cell cycle arrest in human MV4-11 cells assessed as accumulation of cells at G0/G1 phase at 5 uM incubated for 24 hrs by propidium iodide staining flow cytometric analysis (reference value: 34.97 %); type: functional
MV4-11 [26] = assay: Induction of cell cycle arrest in human MV4-11 cells assessed as accumulation of cells at G2/M phase at 0.3125 uM incubated for 24 hrs by propidium iodide staining flow cytometric analysis (reference value: 51.43 %); type: functional
MV4-11 [27] = assay: Induction of cell cycle arrest in human MV4-11 cells assessed as accumulation of cells at G2/M phase at 0.625 uM incubated for 24 hrs by propidium iodide staining flow cytometric analysis (reference value: 51.43 %); type: functional
MV4-11 [28] = assay: Induction of cell cycle arrest in human MV4-11 cells assessed as accumulation of cells at G2/M phase at 1.25 uM incubated for 24 hrs by propidium iodide staining flow cytometric analysis (reference value: 51.43 %); type: functional
MV4-11 [29] = assay: Induction of cell cycle arrest in human MV4-11 cells assessed as accumulation of cells at G2/M phase at 2.5 uM incubated for 24 hrs by propidium iodide staining flow cytometric analysis (reference value: 51.43 %); type: functional
MV4-11 [30] = assay: Induction of cell cycle arrest in human MV4-11 cells assessed as accumulation of cells at G2/M phase at 5 uM incubated for 24 hrs by propidium iodide staining flow cytometric analysis (reference value: 51.43 %); type: functional
MV4-11 [31] = assay: Induction of cell cycle arrest in human MV4-11 cells assessed as accumulation of cells at S phase at 0.3125 uM incubated for 24 hrs by propidium iodide staining flow cytometric analysis (reference value: 13.08 %); type: functional
MV4-11 [32] = assay: Induction of cell cycle arrest in human MV4-11 cells assessed as accumulation of cells at S phase at 0.625 uM incubated for 24 hrs by propidium iodide staining flow cytometric analysis (reference value: 13.08 %); type: functional
MV4-11 [33] = assay: Induction of cell cycle arrest in human MV4-11 cells assessed as accumulation of cells at S phase at 1.25 uM incubated for 24 hrs by propidium iodide staining flow cytometric analysis (reference value: 13.08 %); type: functional
MV4-11 [34] = assay: Induction of cell cycle arrest in human MV4-11 cells assessed as accumulation of cells at S phase at 2.5 uM incubated for 24 hrs by propidium iodide staining flow cytometric analysis (reference value: 13.08 %); type: functional
MV4-11 [35] = assay: Induction of cell cycle arrest in human MV4-11 cells assessed as accumulation of cells at S phase at 5 uM incubated for 24 hrs by propidium iodide staining flow cytometric analysis (reference value: 13.08 %); type: functional
MV4-11 [36] = assay: Antitumor activity against human MV4-11 cells xenografted in BALB/c mouse assessed as tumor growth inhibition relative to control; type: functional
Homo sapiens [37] = species on record: Homo sapiens; settings: time 30.0 min
Homo sapiens [38] = species on record: Homo sapiens; settings: time 30.0 min; remark: listed apart in the source
Homo sapiens [39] = species on record: Homo sapiens; settings: time 30.0 min; remark: listed apart in the source
MV4-11 [40] = assay: cells; settings: Homo sapiens, MV4-11, 48 h
Description: Antiproliferative activity against human MV4-11 cells assessed as inhibition of cell growth incubated for 48 hrs by MTT assay

MOLM-13 = assay: cells; settings: Homo sapiens, MOLM-13, 48 h
Description: Antiproliferative activity against human MOLM-13 cells assessed as inhibition of cell growth incubated for 48 hrs by MTT assay

Jurkat = assay: cells; settings: Homo sapiens, 48 h
Description: Antiproliferative activity against human Jurkat cells assessed as inhibition of cell growth incubated for 48 hrs by MTT assay

MM1.S = assay: cells; settings: Homo sapiens, 48 h
Description: Antiproliferative activity against human MM1.S cells assessed as inhibition of cell growth incubated for 48 hrs by MTT assay

`Cc1sc2c(c1C)C(c1ccc(Cl)cc1)=N[C@@H](CC(=O)OC(C)(C)C)c1nnc(C)n1-2` was tested, and the Activity (MV4-11 [1]) was 6.52%, the Activity (MV4-11 [2]) was 6.12% and the Activity (MV4-11 [3]) was 80.59%. For the same compound, the Activity (MV4-11 [4]) was 80.78%, the Activity (MV4-11 [5]) was 88.78% and the Activity (MV4-11 [6]) was 68.49%. It also gave an Activity (MV4-11 [7]) of 67.33%, an Activity (MV4-11 [8]) of 7.22% and an Activity (MV4-11 [9]) of 6.72%. The Activity (MV4-11 [10]) was 8.62%, the Activity (MV4-11 [11]) was 4.15% and the Activity (MV4-11 [12]) was 3.38%. For the same compound, the Activity (MV4-11 [13]) was 4.03%, the Activity (MV4-11 [14]) was 4.68% and the Activity (MV4-11 [15]) was 5.04%. For the same compound, the Activity (MV4-11 [16]) was 0.03%, the Activity (MV4-11 [17]) was 0.03% and the Activity (MV4-11 [18]) was 0%. For the same compound, the Activity (MV4-11 [19]) was 0%, the Activity (MV4-11 [20]) was 0.06% and the Activity (MV4-11 [21]) was 46.96%. It also gave an Activity (MV4-11 [22]) of 46.96%, an Activity (MV4-11 [23]) of 62.73% and an Activity (MV4-11 [24]) of 65.43%. It also gave an Activity (MV4-11 [25]) of 64.98%, an Activity (MV4-11 [26]) of 11.65% and an Activity (MV4-11 [27]) of 11.65%. It also gave an Activity (MV4-11 [28]) of 18.1%, an Activity (MV4-11 [29]) of 11% and an Activity (MV4-11 [30]) of 11.71%. The Activity (MV4-11 [31]) was 40.75%, the Activity (MV4-11 [32]) was 40.75% and the Activity (MV4-11 [33]) was 19.09%. It also gave an Activity (MV4-11 [34]) of 23.24%, an Activity (MV4-11 [35]) of 22.85% and a TGI (MV4-11 [36]) of 52.82%. For the same compound, the ΔTm (Homo sapiens [37]) was 0 °C, the ΔTm (Homo sapiens [38]) was 0 °C and the ΔTm (Homo sapiens [39]) was 0 °C. The IC50 (MV4-11 [40]) was 1300 nM, the IC50 (MOLM-13) was 1730 nM and the IC50 (Jurkat) was 16300 nM. The IC50 (MM1.S) was 2840 nM.
